Experimental data reported in patent US20170296566A9, “METHODS AND COMPOSITIONS FOR TREATING AND/OR PREVENTING MUCOSITIS” (GLYCOMIMETICS, INC., priority 2013, published 2017).

Each compound was assayed against T1, E-selectin (Homo sapiens, UniProt P16581) (assay: E-selectin competitive binding assay (inhibition of sLe^a binding to immobilized E-selectin/Ig chimera)). Details: biotinylated sLe^a polyacrylamide with streptavidin/HRP, TMB, 450 nm, read-out: IC50 (μM), E-Selectin Antagonist Activity.
T1 construct: fused on or other part: Immunoglobulin (Ig) portion fused to E-selectin as a handle for immobilisation
T1 sequence (P16581 22-175 limits assumed): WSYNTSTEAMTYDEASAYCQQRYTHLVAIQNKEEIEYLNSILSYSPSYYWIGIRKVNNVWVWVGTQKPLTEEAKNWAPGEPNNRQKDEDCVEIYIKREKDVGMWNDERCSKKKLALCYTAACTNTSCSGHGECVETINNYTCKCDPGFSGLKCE
Procedure: The inhibition assay to screen for and characterize glycomimetic antagonists of E-selectin is a competitive binding assay, which allows the determination of IC50 values. E-selectin/Ig chimera was immobilized in 96 well microtiter plates by incubation at 37° C. for 2 hours. To reduce nonspecific binding, bovine serum albumin was added to each well and incubated at room temperature for 2 hours. The plate was washed and serial dilutions of the test compounds were added to the wells in the presence of conjugates of biotinylated, sLe^a polyacrylamide with streptavidin/horseradish peroxidase and incubated for 2 hours at room temperature.
To determine the amount of sLe^a bound to immobilized E-selectin after washing, the peroxidase substrate, 3,3′,5,5′ tetramethylbenzidine (TMB) was added. After 3 minutes, the enzyme reaction was stopped by the addition of H3PO4, and the absorbance of light at a wavelength of 450 nm was determined.
In addition to reporting the absolute IC50 value as measured above, relative IC50 values (rIC50) are determined by a ratio of the IC50 measured for the test compound to that of an internal control (reference) stated for each assay.

Compound	IC50 [µM]
CCC1CC(C(=O)NCCNC(=O)CCOCCOCCOCCOCCOCCOCCOCCOCCOCCOCCOCCOC)CC(OC2OC(CO)C(O)C(OC(CC3CCCCC3)C(=O)N(C)C)C2NC(C)=O)C1OC1OC(C)C(O)C(O)C1O (centres unmarked) [Compound 45]	< 4
CCC1CC(C(=O)NCCNC(=O)c2nc(C)cs2)C[C@@H](O[C@@H]2OC(CO)[C@H](O)C(O[C@@H](CC3CCCCC3)C(=O)O)C2NC(C)=O)C1OC1O[C@@H](C)C(O)C(O)[C@@H]1O (some centres unmarked) [Compound 28]	< 4
CCC1CC(C(=O)OC)C[C@@H](O[C@@H]2O[C@@H](CO)[C@H](O)C(O[C@@H](CC3CCCCC3)C(=O)O)C2NC(C)=O)[C@@H]1OC1O[C@@H](C)[C@H](O)C(O)[C@@H]1O (some centres unmarked) [Compound 22]	< 4

Next, values leading:

IC50 [µM]	Compound
< 4	CCC1CC(C(=O)NCCNC(=O)Cc2cc(=O)oc3cc(O)ccc23)C[C@@H](O[C@@H]2OC(CO)[C@H](O)C(O[C@@H](CC3CCCCC3)C(=O)O)C2NC(C)=O)C1OC1O[C@@H](C)C(O)C(O)[C@@H]1O (some centres unmarked) [Compound 29]
< 4	CCC1CC(C(=O)OC)C[C@@H](O[C@@H]2OC(CO)[C@H](O)C(O[C@@H](CC3CCCCC3)C(=O)O)C2NC(=O)C(F)(F)F)C1OC1O[C@@H](C)C(O)C(O)[C@@H]1O (some centres unmarked) [Compound 27]
